Assays:
Assay type in all cases: physicochemical
[1] = Absorption spectrum of n-decane solution: solution color, absorption maximum wavelength λmax, molar extinction coefficient ε; details: for Absorption maximum wavelength λmax: 10 mm quartz cell; for ε (molar extinction coefficient): at λmax
Protocol: The solution color, absorption maximum wavelength (λmax), solubility C in 5° C. n-decane, molar extinction coefficient ε, and εC of each ink are summarized in Table 4.
One milligram of each of compound 1 and comparative compounds 1 and 2 was dissolved in 100 mL of the solvent, and the solution was examined for absorption spectrum with Hitachi Spectrophotometer U-4100 using a quartz cell having a measuring optical-path length of 10 mm. From the spectrum obtained, the absorption maximum wavelength λmax (nm) and the molar extinction coefficient E (L·mol^−1·cm^−1) were determined.

[2] = Light fastness test (xenon light weatherometer, retention of absorbance); details: retention of absorbance at λmax; n-decane solution, xenon light 340 nm, 0.55 W/m^2, 40 hours, 33° C.
Protocol: The light fastness of compounds 1 to 3, 5, and 7 to 11 and comparative compound 1 was determined in the following manner. In 0.99 g of n-decane was dissolved 0.01 of each compound. This solution was introduced into a cell having an optical-path length of 0.004 mm, and this cell was sealed with an epoxy resin. Using a weatherometer (Atlas Ci4000), the cell was irradiated with xenon light (340 nm; irradiance, 0.55 W/m^2) for 40 hours. During the irradiation, the internal temperature of the test chamber was kept at 33° C.
The retention of each compound was calculated using the following equation.

[3] = Solubility C of the compound in n-decane at 5° C. (saturated solution, absorbance) and product εC; details: for Solubility C: in n-decane at 5° C., 24 hours, 0.1-μm filter; for εC: product of ε and saturation concentration C in n-decane at 5° C.
Protocol: The solubility C of each compound in n-decane was determined in the following manner. Each of compounds 1 to 11 and comparative compound 1 was added to n-decane until some of the compound came to remain undissolved, and the mixture was subjected to an ultrasonic treatment at 30° C. for 30 minutes.
After the addition, each mixture was subjected to a 30-minute ultrasonic treatment at 30° C. This mixture was allowed to stand at 5° C. for 24 hours and then subjected to centrifugal filtration with a 0.1-μm filter using a miniature centrifugal machine (centrifugal force, 5,200×g). The saturated solution obtained was diluted to an adequate concentration and examined for absorption spectrum with Hitachi Spectrophotometer U-4100 using a quartz cell having a measuring optical-path length of 10 mm. The concentration of each compound was determined from a relationship between the absorbance at the absorption maximum wavelength λmax (nm) and the molar extinction coefficient ε (L·mol^−1·cm^−1) determined beforehand, and the solubility C (mol·L^−1) thereof was calculated. Furthermore, the product εC of the molar extinction coefficient ε (L·mol^−1·cm^−1) and the solubility C (mol·L^−1) was determined.

[4] = Relative permittivity of solvent (impedance meter method); details: 1 kHz, 22° C.
Text: Precision LCR Meter 4284A, manufactured by Agilent Technologies, Inc., was used to make a measurement by the impedance meter method. […] Relative permittivity=(equivalent parallel capacitance)×(electrode spacing)/(electrode area)/(permittivity of vacuum (ε0))

[5] = Solubility of solvent in water (gas chromatography); details: pure water, 25° C.
Protocol: Into a 110-mL vial were introduced 30 g of pure water and 8 g of the solvent. This vial was shaken for 4 hours at a frequency of 200 times per minute in a 25° C. thermostatic chamber. The liquid which had undergone the shaking was centrifuged (6,000×g; for 5 minutes), and the aqueous layer was sampled. The concentration of the solvent dissolved therein was determined by gas chromatography.

CCCCc1ccc(N=Nc2cc(C(=O)OCCC)c(N=Nc3ccc(N(CC(CC)CCCC)CC(CC)CCCC)cc3C)s2)cc1 (stereo not drawn) [Compound 7]
Absorption maximum wavelength λmax [1]: 590 nm | ε (molar extinction coefficient) [1]: 51000 L/mol/cm | Light fastness [2]: A (retention of 100-90%) | Solubility C [3]: 17.4 mass % | εC [3]: 9500 cm⁻¹

CCCCCCSc1nnc(N=Nc2cc(OC)c(N(Cc3ccc(C(C)(C)C)cc3)Cc3ccc(C(C)(C)C)cc3)cc2NC(C)=O)s1 [compound 1, reference compound]
Absorption maximum wavelength λmax [1]: 526 nm | ε (molar extinction coefficient) [1]: 50000 L/mol/cm | Light fastness [2]: D (retention of 49% or less) | Solubility C [3]: 9.1 mass % | εC [3]: 4700 cm⁻¹

CCCCc1ccc(N=Nc2cc(C#N)c(N=Nc3sc(N(CC(CC)CCCC)CC(CC)CCCC)nc3C(C)(C)C)s2)cc1 (stereo not drawn) [Compound 10]
Absorption maximum wavelength λmax [1]: 595 nm | ε (molar extinction coefficient) [1]: 57000 L/mol/cm | Light fastness [2]: A (retention of 100-90%) | Solubility C [3]: ≧15 mass % | εC [3]: ≧9000 cm^−1

CCCCc1ccc(N=Nc2sc(N=Nc3ccc(N(CC(CC)CCCC)CC(CC)CCCC)cc3C)c(C#N)c2C)cc1 (stereo not drawn) [Compound 2]
Absorption maximum wavelength λmax [1]: 608 nm | ε (molar extinction coefficient) [1]: 62000 L/mol/cm | Light fastness [2]: A (retention of 100-90%) | Solubility C [3]: 1.7 mass % | εC [3]: 1220 cm⁻¹

CCCCCCCCCC [n-decane]
relative permittivity [4]: 2.0 | solubility at 4 h [5]: ≤ 1 µg/mL

CCCCc1ccc(N=Nc2sc(N=Nc3cc(OCC)c(N(CC(CC)CCCC)CC(CC)CCCC)cc3OCC)c(C#N)c2C)cc1 (stereo not drawn) [Compound 4]
Absorption maximum wavelength λmax [1]: 638 nm | ε (molar extinction coefficient) [1]: 54000 L/mol/cm | Light fastness [2]: A (retention of 100-90%) | Solubility C [3]: ≧10.5 mass % | εC [3]: ≧6000 cm^−1

CCCCC(CC)CN(CC(CC)CCCC)c1ccc(N=Nc2sc(N=Nc3ccc(CCC)cc3)c(C)c2C#N)c(NC(C)=O)c1 (stereo not drawn) [Compound 3]
Absorption maximum wavelength λmax [1]: 617 nm | ε (molar extinction coefficient) [1]: 70000 L/mol/cm | Light fastness [2]: A (retention of 100-90%) | Solubility C [3]: ≧34.3 mass % | εC [3]: ≧20000 cm^−1

CCCCc1ccc(N=Nc2cc(C#N)c(N=Nc3sc(N(CC(CC)CCCC)CC(CC)CCCC)nc3C(C)(C)C)s2)c(C)c1 (stereo not drawn) [Compound 11]
Absorption maximum wavelength λmax [1]: 595 nm | ε (molar extinction coefficient) [1]: 59000 L/mol/cm | Light fastness [2]: A (retention of 100-90%) | Solubility C [3]: ≧19.7 mass % | εC [3]: ≧12000 cm^−1

CCCCCc1ccc(N=Nc2cc(C(=O)OCCC)c(N=Nc3ccc(N(CC(CC)CCCC)CC(CC)CCCC)cc3CC)s2)cc1 (stereo not drawn) [Compound 5]
Absorption maximum wavelength λmax [1]: 591 nm | ε (molar extinction coefficient) [1]: 50000 L/mol/cm | Light fastness [2]: A (retention of 100-90%) | Solubility C [3]: ≧20.1 mass % | εC [3]: ≧10000 cm^−1

Reference: patent US9708498B2, “Azo compound, ink containing azo compound, display including said ink and electronic paper” (MITSUBISHI CHEMICAL CORPORATION, priority 2012, dated 2017)
